Results from PubChem BioAssay AID248 (DTP/NCI, 2004).
Where “and” joins values, the source holds several entries; their conditions need not be identical. Identical values can stand only once. Inconclusive results and toxic doses are left out. Rule as the data show it: active = T/C of 150% or more; inactive = T/C below 125%.

Tested on: L1210 leukemia ip in BDF1 mice, survival T/C
Test: NCI In Vivo Anticancer Drug Screen. Data for tumor model L1210 Leukemia (intraperitoneal) in B6D2F1 (BDF1) mice
Conditions: endpoint: mean survival time, higher = longer survival
In short: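 Value reflects the ratio of survival in compound-treated mice to survival in vehicle-treated controls, with both groups carrying the same transplanted tumor.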

[1] = dose: 100.0 mg/kg/injection, schedule: Q04DX003 (ip), vehicle: Klucel (hydroxypropylcellulose) (HPC)
[2] = dose: 200.0 mg/kg/injection, schedule: Q04DX003 (ip), vehicle: Klucel (hydroxypropylcellulose) (HPC)
[3] = dose: 100.0 mg/kg/injection, schedule: Q01DX009 (ip), vehicle: saline
[4] = dose: 200.0 mg/kg/injection, schedule: Q01DX009 (ip), vehicle: saline
[5] = dose: 100.0 mg/kg/injection, schedule: Q01DX009 (ip), vehicle: saline with Tween-80
[6] = dose: 200.0 mg/kg/injection, schedule: Q01DX009 (ip), vehicle: saline with Tween-80
[7] = dose: 400.0 mg/kg/injection, schedule: Q01DX009 (ip), vehicle: saline with Tween-80
[8] = dose: 100.0 mg/kg/injection, schedule: Q04DX003 (ip), vehicle: saline with Tween-80
[9] = dose: 200.0 mg/kg/injection, schedule: Q04DX003 (ip), vehicle: saline with Tween-80
[10] = dose: 100.0 mg/kg/injection, schedule: Q01DX001 (ip), vehicle: saline with Tween-80
[11] = dose: 200.0 mg/kg/injection, schedule: Q01DX001 (ip), vehicle: saline with Tween-80
[12] = dose: 100.0 mg/kg/injection, schedule: Q04DX003 (ip), vehicle: gum acacia
[13] = dose: 200.0 mg/kg/injection, schedule: Q04DX003 (ip), vehicle: gum acacia
[14] = dose: 25.0 mg/kg/injection, schedule: Q01DX009 (ip), vehicle: Klucel (hydroxypropylcellulose) (HPC)
[15] = dose: 50.0 mg/kg/injection, schedule: Q01DX009 (ip), vehicle: Klucel (hydroxypropylcellulose) (HPC)
[16] = dose: 100.0 mg/kg/injection, schedule: Q04DX003 (ip), vehicle: saline

Measured: T/C

Cc1cc(Oc2nc(Cl)nc(C(Cl)(Cl)Cl)c2Cl)cc(C)c1N(C)C (tested in a mixture with another compound)
inactive: [1] 91 % of control | [2] 105 % of control

CC(=O)c1cccc(OCC(O)CN(C(C)C)C(C)C)c1 (stereo unspecified)
inactive: [3] 98 % of control | [4] 98 % of control

CCCCOB=O
inactive: [5] 96 % of control | [6] 106 % of control | [7] 98 % of control

COC(=O)C(CCC(=O)CCl)N1C(=O)c2ccccc2C1=O (stereo unspecified)
inactive: [8] 89 % of control | [9] 89 % of control

COc1ccc2oc(=O)[nH]c2c1
inactive: [10] 100 % of control | [11] 100 % of control | dose: 400.0 mg/kg/injection, schedule: Q01DX001 (ip), vehicle: saline with Tween-80 100 % of control

C(=C\n1ccnc1)/c1ccccc1
inactive: [12] 97 % of control | [13] 87 % of control

C=CC1OC2OC(C)(C)OC2C1O (stereo unspecified)
inactive: dose: 5.0 mg/kg/injection, schedule: Q01DX001 (ip), vehicle: saline 91 % of control | dose: 10.0 mg/kg/injection, schedule: Q01DX001 (ip), vehicle: saline 98 % of control | dose: 18.7 mg/kg/injection, schedule: Q01DX001 (ip), vehicle: steriod suspending solution 108 % of control | dose: 20.0 mg/kg/injection, schedule: Q01DX001 (ip), vehicle: saline 93 % of control | dose: 37.5 mg/kg/injection, schedule: Q01DX001 (ip), vehicle: steriod suspending solution 103 % of control | dose: 40.0 mg/kg/injection, schedule: Q01DX001 (ip), vehicle: saline 96 % of control | dose: 75.0 mg/kg/injection, schedule: Q01DX001 (ip), vehicle: steriod suspending solution 109 % of control | dose: 150.0 mg/kg/injection, schedule: Q01DX001 (ip), vehicle: steriod suspending solution 98 % of control | dose: 200.0 mg/kg/injection, schedule: Q01DX001 (ip), vehicle: steriod suspending solution 104 % of control | dose: 400.0 mg/kg/injection, schedule: Q01DX001 (ip), vehicle: steriod suspending solution 103 % of control

O=C1C=CC(=NBr)C=C1
inactive: dose: 12.5 mg/kg/injection, schedule: Q01DX009 (ip), vehicle: Klucel (hydroxypropylcellulose) (HPC) 89 % of control | [14] 92 % of control | [15] 89 % of control

CN(CCOc1ccccc1O)CCOc1ccccc1O
inactive: [1] 105 % of control | dose: 200.0 mg/kg/injection, schedule: Q01DX009 (ip), vehicle: Klucel (hydroxypropylcellulose) (HPC) 101 % of control | [2] 106 % of control | dose: 400.0 mg/kg/injection, schedule: Q01DX009 (ip), vehicle: Klucel (hydroxypropylcellulose) (HPC) 86 % of control | dose: 400.0 mg/kg/injection, schedule: Q04DX003 (ip), vehicle: Klucel (hydroxypropylcellulose) (HPC) 101 % of control

N=C(N)SCc1csc(N)n1
inactive: dose: 25.0 mg/kg/injection, schedule: Q04DX003 (ip), vehicle: saline 119 % of control | dose: 50.0 mg/kg/injection, schedule: Q04DX003 (ip), vehicle: saline 111 % of control | [3] 112 % of control | [16] 100 % of control and 117 % of control | [4] 96 % of control

Clc1ccc(-c2oc(-c3ccc(Cl)cc3)c3c2CC=CC3)cc1
inactive: [12] 93 % of control | [13] 106 % of control | dose: 400.0 mg/kg/injection, schedule: Q04DX003 (ip), vehicle: gum acacia 97 % of control

C=CCOc1c(Br)cc(Br)cc1Br
inactive: dose: 12.5 mg/kg/injection, schedule: Q04DX002 (ip), vehicle: Klucel (hydroxypropylcellulose) (HPC) 96 % of control | dose: 25.0 mg/kg/injection, schedule: Q04DX002 (ip), vehicle: Klucel (hydroxypropylcellulose) (HPC) 100 % of control | dose: 50.0 mg/kg/injection, schedule: Q04DX002 (ip), vehicle: Klucel (hydroxypropylcellulose) (HPC) 86 % of control | dose: 100.0 mg/kg/injection, schedule: Q04DX002 (ip), vehicle: Klucel (hydroxypropylcellulose) (HPC) 95 % of control | dose: 200.0 mg/kg/injection, schedule: Q04DX002 (ip), vehicle: Klucel (hydroxypropylcellulose) (HPC) 89 % of control | dose: 400.0 mg/kg/injection, schedule: Q04DX002 (ip), vehicle: Klucel (hydroxypropylcellulose) (HPC) 95 % of control

Cc1cccc(CCSCCc2cccc(C)[n+]2[O-])[n+]1[O-]
inactive: dose: 100.0 mg/kg/injection, schedule: Q01DX001 (ip), vehicle: saline 96 % of control | dose: 200.0 mg/kg/injection, schedule: Q01DX001 (ip), vehicle: saline 92 % of control

CCCc1cc(CCC)nc(NNc2nc(CCC)cc(CCC)n2)n1
inactive: [5] 104 % of control | [6] 96 % of control | [7] 110 % of control

CN(C)c1ccc(C=C(Cl)Cl)cc1
inactive: dose: 50.0 mg/kg/injection, schedule: Q01DX005 (ip), vehicle: other 108 % of control | dose: 50.0 mg/kg/injection, schedule: Q01DX009 (ip), vehicle: other 96 % of control | dose: 100.0 mg/kg/injection, schedule: Q01DX005 (ip), vehicle: other 108 % of control | dose: 100.0 mg/kg/injection, schedule: Q01DX009 (ip), vehicle: other 107 % of control | dose: 200.0 mg/kg/injection, schedule: Q01DX005 (ip), vehicle: other 112 % of control | dose: 200.0 mg/kg/injection, schedule: Q01DX009 (ip), vehicle: other 100 % of control

CCC[CH2][Sn]([CH2]CCC)([O]S(C)(=O)=O)[O]S(C)(=O)=O
inactive: dose: 1.56 mg/kg/injection, schedule: Q01DX009 (ip), vehicle: Klucel (hydroxypropylcellulose) (HPC) 105 % of control | dose: 3.12 mg/kg/injection, schedule: Q01DX009 (ip), vehicle: Klucel (hydroxypropylcellulose) (HPC) 105 % of control

CCCCCCCC[As](=O)(O)O
inactive: dose: 1.5 mg/kg/injection, schedule: Q01DX001 (ip), vehicle: carboxymethylcellulose (CMC) 104 % of control | dose: 3.0 mg/kg/injection, schedule: Q01DX001 (ip), vehicle: carboxymethylcellulose (CMC) 98 % of control | dose: 6.0 mg/kg/injection, schedule: Q01DX001 (ip), vehicle: carboxymethylcellulose (CMC) 102 % of control

C=CC1CCC2OC(=O)C(=C)C2C1 (stereo unspecified)
inactive: [16] 101 % of control | dose: 200.0 mg/kg/injection, schedule: Q04DX003 (ip), vehicle: saline 95 % of control | dose: 400.0 mg/kg/injection, schedule: Q04DX003 (ip), vehicle: saline 101 % of control

CCc1ccc(/C(C#N)=C/c2ccc(N(C)C)cc2)cc1
inactive: [14] 100 % of control | [15] 91 % of control | dose: 100.0 mg/kg/injection, schedule: Q01DX009 (ip), vehicle: Klucel (hydroxypropylcellulose) (HPC) 96 % of control and 90 % of control

COc1ccc(OC(=O)Nc2ccc(C)cc2[N+](=O)[O-])cc1
inactive: [8] 102 % of control | [9] 98 % of control | dose: 400.0 mg/kg/injection, schedule: Q04DX003 (ip), vehicle: saline with Tween-80 93 % of control

CCCS/C(N)=N/N=C/c1ccc([N+](=O)[O-])o1
inactive: dose: 50.0 mg/kg/injection, schedule: Q01DX001 (ip), vehicle: other 96 % of control | dose: 100.0 mg/kg/injection, schedule: Q01DX001 (ip), vehicle: other 94 % of control

CCCCCCCCCCc1cc2c([nH]1)C(=O)c1ccccc1C2=O
inactive: dose: 37.5 mg/kg/injection, schedule: Q01DX001 (ip), vehicle: Klucel (hydroxypropylcellulose) (HPC) 86 % of control | dose: 75.0 mg/kg/injection, schedule: Q01DX001 (ip), vehicle: Klucel (hydroxypropylcellulose) (HPC) 89 % of control

O=C(COc1c(Cl)cc(Cl)cc1Cl)Nc1cccnc1
inactive: dose: 100.0 mg/kg/injection, schedule: Q01DX001 (ip), vehicle: Klucel (hydroxypropylcellulose) (HPC) 100 % of control | dose: 200.0 mg/kg/injection, schedule: Q01DX001 (ip), vehicle: Klucel (hydroxypropylcellulose) (HPC) 100 % of control | dose: 400.0 mg/kg/injection, schedule: Q01DX001 (ip), vehicle: Klucel (hydroxypropylcellulose) (HPC) 107 % of control

N#Cc1ccsc1C#N
inactive: dose: 100.0 mg/kg/injection, schedule: Q04DX003 (ip), vehicle: acetone 109 % of control

O=P(c1c(F)c(F)c(F)c(F)c1F)(c1c(F)c(F)c(F)c(F)c1F)c1c(F)c(F)c(F)c(F)c1F
inactive: [10] 91 % of control | [11] 91 % of control
